Measured values reported in patent US8017656B2, “Organic sulfur compounds and use thereof” (Sumitomo Chemical Company, Limited, priority 2005, dated 2011).
Where two headings read alike, the source gives them in different places.

How the values were obtained:
Assay type in all cases: in vivo
[1] = test system: Musca domestica; assay: Test Example 2: filter paper/sucrose bait test against housefly imagoes; conditions: read-out: rate of dead pests
Experimental: (§1) On the bottom of a polyethylene cup having a diameter of 5.5 cm, a filter paper having the same diameter was laid, and 0.7 ml of the above test solution was added dropwise on the filter paper, followed by putting 30 mg of sucrose on it uniformly as a bait. Ten female Musca domestica imagoes were set free in the polyethylene cup and covered it with a lid. After 24 hours, the number of surviving and dead Musca domestica was examined and the rate of dead pests was calculated.

[2] = test system: Blattella germanica; assay: Test Example 3: filter paper/sucrose bait test against German cockroach imagoes; conditions: Blattella germanica, 144 h, read-out: rate of dead pests
Experimental: as §1, with “Two male Blattella germanica” for “Ten female Musca domestica”, “6 days,” for “24 hours,”, “Blattella germanica” for “Musca domestica”

[3] = test system: Culex pipiens pallens; assay: Test Example 4: mosquito larvae test in treated water; conditions: 24 h, read-out: rate of dead pests
Experimental: 0.7 ml of above test solution was added to 100 ml of ion exchanged water (active ingredient concentration: 3.5 ppm). Twenty last-instar larvae of Culex pipiens pallens were set free in the solution. After one day, the number of surviving and dead Culex pipiens pallens was examined and the rate of dead pests was calculated.

[4] = 500 ppm test solution, 0.7 ml on filter paper with 30 mg sucrose, ten female imagoes, after 24 hours
[5] = 500 ppm test solution, 0.7 ml on filter paper with 30 mg sucrose, two male imagoes, after 6 days
[6] = active ingredient concentration 3.5 ppm in water, twenty last-instar larvae, after one day

N#CC(CCC(F)(F)F)S(=O)(=O)CCC(F)(F)F (stereo not drawn) [(1)]
pest or weed control at 500 ppm [1, 4]: ≥ 70% | pest or weed control at 500 ppm [2, 5]: 100% | pest or weed control at 3.5 ppm [3, 6]: ≥ 90%

N#CC(CC(F)(F)C(F)(F)F)S(=O)(=O)CCC(F)(F)F (stereo not drawn) [(2)]
pest or weed control at 500 ppm [1, 4]: ≥ 70% | pest or weed control at 500 ppm [2, 5]: 100% | pest or weed control at 3.5 ppm [3, 6]: ≥ 90%

N#CC(CCC(F)(F)C(F)(F)F)S(=O)(=O)CCC(F)(F)F (stereo not drawn) [(3)]
pest or weed control at 500 ppm [1, 4]: ≥ 70% | pest or weed control at 500 ppm [2, 5]: 100% | pest or weed control at 3.5 ppm [3, 6]: ≥ 90%

N#CC(CC(F)(F)C(F)(F)C(F)(F)F)S(=O)(=O)CCC(F)(F)F (stereo not drawn) [(4)]
pest or weed control at 500 ppm ([1]; 24 h): ≥ 70% | pest or weed control at 500 ppm [2]: 100% | pest or weed control at 3.5 ppm [3]: ≥ 90%

N#CC(CCC(F)(F)C(F)(F)C(F)(F)F)S(=O)(=O)CCC(F)(F)F (stereo not drawn) [(5)]
pest or weed control at 500 ppm ([1]; 24 h): ≥ 70% | pest or weed control at 500 ppm [2]: 100% | pest or weed control at 3.5 ppm [3]: ≥ 90%

N#CC(CCC(F)(F)C(F)(F)C(F)(F)C(F)(F)F)S(=O)(=O)CCC(F)(F)F (stereo not drawn) [(7)]
pest or weed control at 500 ppm [2]: 100% | pest or weed control at 3.5 ppm [3]: ≥ 90%

N#CC(CCC(F)(F)C(F)(F)F)S(=O)(=O)CCC(F)(F)C(F)(F)F (stereo not drawn) [(8)]
pest or weed control at 500 ppm [1, 4]: ≥ 70% | pest or weed control at 500 ppm [2, 5]: 100% | pest or weed control at 3.5 ppm [3, 6]: ≥ 90%

N#CC(CC(F)(F)C(F)(F)C(F)(F)F)S(=O)(=O)CCC(F)(F)C(F)(F)F (stereo not drawn) [(9)]
pest or weed control at 500 ppm ([1]; 24 h): ≥ 70% | pest or weed control at 500 ppm [2]: 100% | pest or weed control at 3.5 ppm [3]: ≥ 90%

N#CC(CCC(F)(F)C(F)(F)F)S(=O)(=O)CCC(F)(F)C(F)(F)C(F)(F)F (stereo not drawn) [(10)]
pest or weed control at 500 ppm ([1]; 24 h): ≥ 70% | pest or weed control at 500 ppm [2]: 100% | pest or weed control at 3.5 ppm [3]: ≥ 90%

CC(C#N)(CCC(F)(F)C(F)(F)F)S(=O)(=O)CCC(F)(F)F (stereo not drawn) [(11)]
pest or weed control at 500 ppm [1, 4]: ≥ 70% | pest or weed control at 500 ppm [2, 5]: 100% | pest or weed control at 3.5 ppm [3, 6]: ≥ 90%

CC(C#N)(CC(F)(F)C(F)(F)C(F)(F)F)S(=O)(=O)CCC(F)(F)F (stereo not drawn) [(12)]
pest or weed control at 500 ppm ([1]; 24 h): ≥ 70% | pest or weed control at 500 ppm [2]: 100% | pest or weed control at 3.5 ppm [3]: ≥ 90%

CC(C#N)(CCC(F)(F)C(F)(F)F)S(=O)(=O)CCC(F)(F)C(F)(F)F (stereo not drawn) [(13)]
pest or weed control at 500 ppm [1, 4]: ≥ 70% | pest or weed control at 500 ppm [2, 5]: 100% | pest or weed control at 3.5 ppm [3, 6]: ≥ 90%

CC(C#N)(CCC(F)(F)C(F)(F)F)S(=O)(=O)CCC(F)(F)C(F)(F)C(F)(F)F (stereo not drawn) [(14)]
pest or weed control at 500 ppm ([1]; 24 h): ≥ 70% | pest or weed control at 500 ppm [2]: 100% | pest or weed control at 3.5 ppm [3]: ≥ 90%

CCC(C#N)(CCC(F)(F)C(F)(F)F)S(=O)(=O)CCC(F)(F)F (stereo not drawn) [(15)]
pest or weed control at 500 ppm [1, 4]: ≥ 70% | pest or weed control at 500 ppm [2, 5]: 100% | pest or weed control at 3.5 ppm [3, 6]: ≥ 90%

CCCC(C#N)(CCC(F)(F)C(F)(F)F)S(=O)(=O)CCC(F)(F)F (stereo not drawn) [(16)]
pest or weed control at 500 ppm [1, 4]: ≥ 70% | pest or weed control at 500 ppm [2, 5]: 100% | pest or weed control at 3.5 ppm [3, 6]: ≥ 90%

CC(C)C(C#N)(CCC(F)(F)C(F)(F)F)S(=O)(=O)CCC(F)(F)F (stereo not drawn) [(17)]
pest or weed control at 500 ppm [1, 4]: ≥ 70% | pest or weed control at 500 ppm [2, 5]: 100% | pest or weed control at 3.5 ppm [3, 6]: ≥ 90%

CCCCC(C#N)(CCC(F)(F)C(F)(F)F)S(=O)(=O)CCC(F)(F)F (stereo not drawn) [(18)]
pest or weed control at 500 ppm [1, 4]: ≥ 70% | pest or weed control at 3.5 ppm [3, 6]: ≥ 90%

CCCCCC(C#N)(CCC(F)(F)C(F)(F)F)S(=O)(=O)CCC(F)(F)F (stereo not drawn) [(19)]
pest or weed control at 500 ppm [1, 4]: ≥ 70% | pest or weed control at 3.5 ppm [3, 6]: ≥ 90%

N#CC(F)(CCC(F)(F)C(F)(F)F)S(=O)(=O)CCC(F)(F)F (stereo not drawn) [(20)]
pest or weed control at 500 ppm [1, 4]: ≥ 70% | pest or weed control at 500 ppm [2, 5]: 100% | pest or weed control at 3.5 ppm [3, 6]: ≥ 90%

N#CC(Cl)(CCC(F)(F)C(F)(F)F)S(=O)(=O)CCC(F)(F)F (stereo not drawn) [(21)]
pest or weed control at 500 ppm [1, 4]: ≥ 70% | pest or weed control at 500 ppm [2, 5]: 100% | pest or weed control at 3.5 ppm [3, 6]: ≥ 90%

COC(=O)C(CCCC(F)(F)F)S(=O)(=O)CCC(F)(F)F (stereo not drawn) [(22)]
pest or weed control at 500 ppm [1, 4]: ≥ 70% | pest or weed control at 3.5 ppm [3, 6]: ≥ 90%

COC(=O)C(CCC(F)(F)C(F)(F)F)S(=O)(=O)CCC(F)(F)F (stereo not drawn) [(23)]
pest or weed control at 500 ppm [1, 4]: ≥ 70% | pest or weed control at 500 ppm [2, 5]: 100% | pest or weed control at 3.5 ppm [3, 6]: ≥ 90%

COC(=O)C(CCC(F)(F)C(F)(F)F)S(=O)(=O)CCC(F)(F)C(F)(F)F (stereo not drawn) [(24)]
pest or weed control at 3.5 ppm [3, 6]: ≥ 90%

CC(C)(C)OC(=O)C(CCC(F)(F)C(F)(F)F)S(=O)(=O)CCC(F)(F)F (stereo not drawn) [(25)]
pest or weed control at 500 ppm [1, 4]: ≥ 70% | pest or weed control at 3.5 ppm [3, 6]: ≥ 90%

COC(=O)C(C)(CCC(F)(F)C(F)(F)F)S(=O)(=O)CCC(F)(F)F (stereo not drawn) [(26)]
pest or weed control at 500 ppm [1, 4]: ≥ 70% | pest or weed control at 500 ppm [2, 5]: 100% | pest or weed control at 3.5 ppm [3, 6]: ≥ 90%

CCCC(CCC(F)(F)C(F)(F)F)(C(=O)OC)S(=O)(=O)CCC(F)(F)F (stereo not drawn) [(28)]
pest or weed control at 500 ppm [1, 4]: ≥ 70%

COC(=O)C(F)(CCC(F)(F)C(F)(F)F)S(=O)(=O)CCC(F)(F)F (stereo not drawn) [(29)]
pest or weed control at 500 ppm [1, 4]: ≥ 70% | pest or weed control at 500 ppm [2, 5]: 100% | pest or weed control at 3.5 ppm [3, 6]: ≥ 90%
